How the values were obtained:
B16-V melanoma cells = assay: Inhibition of melanin synthesis in B16-V melanoma cells (whitening activity); type: cell-based; conditions: 72 h, alpha-MSH stimulation, FIG. 1
Protocol: B16-V melanoma cells were incubated for 72 h with assay medium containing different amounts of test substances. The concentration depends on the results of the MTT-Assay. Only concentrations without effect on viability (after 24 h incubation) were used for further melanin evaluation. Every 24 hours medium was changed and replaced by fresh assay medium containing the compounds and alpha-MSH (stimulation of melanin synthesis). The cell number was determined and the cells got lysed using 1M NaOH. Afterwards the amount of melanin was measured at 405 nm with a microplatereader (Safire2™, Tecan). Different concentrations of synthetic melanin were used to produce a calibration curve. Melanin content was expressed as pg/cell.

[1] = test system: epidermal differentiation proteins; assay: In vitro expression of epidermal differentiation proteins; type: cell-based; conditions: own unpublished results
PPAR alpha = target: T1, PPAR alpha (Homo sapiens, UniProt Q07869); assay: PPAR-alpha transactivation assay (luciferase reporter, SK-Hep1 cells cotransfected with PPARα expression vector); type: cell-based; conditions: for Fold Activation PPAR alpha: 36 h incubation, luciferase activity relative to control
T1 construct: expressed in transfected cells; host or cells: human SK-Hep1 cells
T1 sequence (Q07869 1-468): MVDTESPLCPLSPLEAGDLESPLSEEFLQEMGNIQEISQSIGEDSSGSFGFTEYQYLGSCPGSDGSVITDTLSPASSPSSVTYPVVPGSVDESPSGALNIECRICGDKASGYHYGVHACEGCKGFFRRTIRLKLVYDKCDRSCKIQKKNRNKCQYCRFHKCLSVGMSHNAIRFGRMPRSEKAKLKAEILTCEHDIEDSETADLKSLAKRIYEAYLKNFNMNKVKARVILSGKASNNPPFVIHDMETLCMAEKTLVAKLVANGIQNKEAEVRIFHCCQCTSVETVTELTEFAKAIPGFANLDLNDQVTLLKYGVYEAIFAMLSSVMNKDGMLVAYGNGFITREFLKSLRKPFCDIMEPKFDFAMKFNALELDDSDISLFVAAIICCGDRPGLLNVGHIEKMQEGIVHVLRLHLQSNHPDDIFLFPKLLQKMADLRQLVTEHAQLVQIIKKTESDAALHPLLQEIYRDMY
From the text: (§1) Analysis of the activation of PPARα and PPARγ is based on the transfection of a DNA allowing the expression of a reporter gene (the gene of luciferase) under the control of the PPARs, either endogenous in the case of PPARγ or exogenous in the case of PPARα. The reporter plasmid J3TkLuc comprises three copies of the response element for PPARs of the human apo A-II gene (Staels, B et al. (1995), J. Clin. Invest., 95, 705-712) which are cloned upstream of the promoter of the thymidine kinase gene of the herpes simplex virus in the plasmid pGL3. This reporter gene was obtained by subcloning, in the plasmid pGL3, the plasmid J3TkCAT described above (Fajas, L et al. (1997), J. Biol. Chem., 272, 18779-18789). […] These cells were inoculated at the rate of 20,000 cells per well (96-well plates) and transfected with 150 ng of reporter DNA complexed with a mixture of lipids. In the case of the SK-Hep1 cells, an expression vector for PPARα, described by Sher, T. et al. (1993), Biochemistry, 32, 5598-5604, is cotransfected. After 5 hours, the cells are washed twice and incubated for 36 hours in the presence of the test compound in a fresh culture medium comprising 10% foetal calf serum. At the end of incubation, the cells are lysed and the luciferase activity is measured.

PPAR gamma = assay: PPAR-gamma transactivation assay (luciferase reporter, CV1 cells expressing PPARγ); type: cell-based, human; conditions: for Fold Activation PPAR gamma: 36 h incubation, luciferase activity relative to control
From the text: as §1

## CCOC(=O)c1c(C)n(CC(C)C)c2ccc(OC(C)(C(=O)O)c3ccccc3)cc12 (stereo not shown) [Compound, 2-Phenyl-2-(1-isobutyl-2-methyl-3-ethoxycarbonyl-5-indolyloxy)-propionic acid]
B16-V melanoma cells
  melanin inhibiting activity: superb melanin inhibiting activity
  melanin inhibiting activity compared with kojic acid: significantly better than kojic acid
[1]
  expression of epidermal differentiation proteins: increased expression of epidermal differentiation proteins
PPAR alpha
  PPAR-alpha activation (in words): activator
PPAR alpha; 0.1 μm
  Fold Activation PPAR alpha: 1.0 fold
PPAR alpha; 0.3 μm
  Fold Activation PPAR alpha: 1.3 fold
PPAR alpha; 1 μm
  Fold Activation PPAR alpha: 1.9 fold
PPAR alpha; 3 μm
  Fold Activation PPAR alpha: 2.3 fold
PPAR alpha; 6.25 μm
  Fold Activation PPAR alpha: 10.2 fold
PPAR alpha; 10 μm
  Fold Activation PPAR alpha: 6.7 fold
PPAR alpha; 12.5 μm
  Fold Activation PPAR alpha: 21.6 fold
PPAR alpha; 25 μm
  Fold Activation PPAR alpha: 34.8 fold
PPAR alpha; 30 μm
  Fold Activation PPAR alpha: 31.1 fold
PPAR alpha; 50 μm
  Fold Activation PPAR alpha: 42.0 fold
PPAR gamma
  PPAR-gamma activation (in words): activator
PPAR gamma; 0.1 μm
  Fold Activation PPAR gamma: 0.6 fold
PPAR gamma; 0.3 μm
  Fold Activation PPAR gamma: 1.8 fold
PPAR gamma; 1 μm
  Fold Activation PPAR gamma: 2.8 fold
PPAR gamma; 3 μm
  Fold Activation PPAR gamma: 3.0 fold
PPAR gamma; 6.25 μm
  Fold Activation PPAR gamma: 12.9 fold
PPAR gamma; 10 μm
  Fold Activation PPAR gamma: 4.3 fold
PPAR gamma; 12.5 μm
  Fold Activation PPAR gamma: 16.9 fold
PPAR gamma; 25 μm
  Fold Activation PPAR gamma: 18.7 fold
PPAR gamma; 30 μm
  Fold Activation PPAR gamma: 7.6 fold
PPAR gamma; 50 μm
  Fold Activation PPAR gamma: 18.8 fold
